pIC50, pKi: −log10 of the molar value. In brackets after ≈: the same amount, converted by molar mass.
Key:
[1] = target: T1, Acetylcholinesterase (Homo sapiens, UniProt P22303); test: Inhibition of AChE (unknown origin) using […] preincubated for 15 mins by Ellman's method
[2] = test system: Staphylococcus aureus; test: Antibacterial activity against Staphylococcus aureus MTCC 096 assessed as bacterial growth inhibition; type: functional
[3] = test system: Escherichia coli; test: Antibacterial activity against Escherichia coli MTCC 443 assessed as bacterial growth inhibition; type: functional
[4] = test system: Aspergillus niger; test: Antifungal activity against Aspergillus niger MTCC 343 assessed as fungal growth inhibition; type: functional
[5] = test system: Escherichia coli; test: Antibacterial activity against multidrug resistant Escherichia coli MDREC-EM7 mutant assessed as bacterial growth inhibition; type: functional
[6] = test system: Escherichia coli; test: Antibacterial activity against multidrug resistant Escherichia coli MDREC-KG1 clinical isolate assessed as bacterial growth inhibition; type: functional
[7] = test system: Escherichia coli; test: Antibacterial activity against multidrug resistant Escherichia coli MDREC-KG4 clinical isolate assessed as bacterial growth inhibition; type: functional
[8] = test system: Escherichia coli; test: Antibacterial activity against multidrug resistant Escherichia coli MDREC-EM5 mutant assessed as bacterial growth inhibition; type: functional
[9] = species on record: Homo sapiens; test: Selectivity index, ratio of IC50 for recombinant human MAO-A to IC50 for recombinant human MAO-B
[10] = target: T2, Amine oxidase [flavin-containing] A (Homo sapiens, UniProt P21397); test: Inhibition of recombinant human MAO-A using kynuramine as substrate by fluorescence spectrophotometry
T2 sequence (P21397 whole entry): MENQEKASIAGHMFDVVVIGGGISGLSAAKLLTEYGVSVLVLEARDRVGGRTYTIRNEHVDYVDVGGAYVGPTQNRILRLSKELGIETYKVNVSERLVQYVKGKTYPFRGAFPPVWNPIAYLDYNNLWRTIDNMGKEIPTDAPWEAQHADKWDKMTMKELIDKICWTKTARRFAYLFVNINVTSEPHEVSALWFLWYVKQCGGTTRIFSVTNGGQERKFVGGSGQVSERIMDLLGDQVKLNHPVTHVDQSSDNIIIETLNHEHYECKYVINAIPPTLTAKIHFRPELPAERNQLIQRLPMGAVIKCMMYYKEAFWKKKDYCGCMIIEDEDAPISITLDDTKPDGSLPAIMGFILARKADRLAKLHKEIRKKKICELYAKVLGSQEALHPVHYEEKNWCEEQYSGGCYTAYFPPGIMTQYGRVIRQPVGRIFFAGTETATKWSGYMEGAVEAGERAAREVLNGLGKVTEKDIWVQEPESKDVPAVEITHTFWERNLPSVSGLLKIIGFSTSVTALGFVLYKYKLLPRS

[11] = target: T3, Amine oxidase [flavin-containing] B (Homo sapiens, UniProt P27338); test: Inhibition of recombinant human MAO-B using kynuramine as substrate by fluorescence spectrophotometry
T3 sequence (P27338 whole entry): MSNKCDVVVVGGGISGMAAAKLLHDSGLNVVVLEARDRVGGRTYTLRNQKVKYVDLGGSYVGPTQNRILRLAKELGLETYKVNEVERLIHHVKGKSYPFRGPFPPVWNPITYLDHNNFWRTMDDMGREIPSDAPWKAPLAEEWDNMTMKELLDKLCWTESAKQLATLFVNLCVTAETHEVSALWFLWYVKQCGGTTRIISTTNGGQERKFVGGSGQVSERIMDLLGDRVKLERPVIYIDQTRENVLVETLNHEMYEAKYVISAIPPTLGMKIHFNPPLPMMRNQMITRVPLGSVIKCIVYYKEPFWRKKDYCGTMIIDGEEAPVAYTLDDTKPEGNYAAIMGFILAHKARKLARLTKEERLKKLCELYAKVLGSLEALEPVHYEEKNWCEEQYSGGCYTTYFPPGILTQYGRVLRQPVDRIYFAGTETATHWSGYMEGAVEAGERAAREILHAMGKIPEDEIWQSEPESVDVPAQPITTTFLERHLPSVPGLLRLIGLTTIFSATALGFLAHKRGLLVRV

[12] = test system: A-431; test: Antiproliferative activity against human A-431 cells assessed as cell growth inhibition incubated for 48 hrs by methylene blue staining based colorimetric assay; type: functional; conditions: A-431, 48 h
[13] = target: T4, Amine oxidase [flavin-containing] A (Bos taurus, UniProt P21398)
T4 sequence (P21398 whole entry): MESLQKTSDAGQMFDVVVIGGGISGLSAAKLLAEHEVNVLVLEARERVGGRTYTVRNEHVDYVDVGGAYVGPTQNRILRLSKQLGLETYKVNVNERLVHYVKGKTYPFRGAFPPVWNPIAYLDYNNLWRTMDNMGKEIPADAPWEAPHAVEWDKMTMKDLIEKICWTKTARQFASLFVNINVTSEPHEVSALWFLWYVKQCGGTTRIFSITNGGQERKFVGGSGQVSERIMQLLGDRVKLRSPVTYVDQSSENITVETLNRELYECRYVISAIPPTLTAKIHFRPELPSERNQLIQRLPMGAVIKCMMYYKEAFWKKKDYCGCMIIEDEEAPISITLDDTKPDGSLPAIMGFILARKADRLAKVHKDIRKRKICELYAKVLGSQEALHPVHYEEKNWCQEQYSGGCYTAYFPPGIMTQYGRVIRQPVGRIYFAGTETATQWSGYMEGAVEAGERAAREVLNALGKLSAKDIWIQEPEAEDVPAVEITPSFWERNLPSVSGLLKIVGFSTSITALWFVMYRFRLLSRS
Description: Inhibition of recombinant bovine mitochondrial MAO-A using benzylamine or serotonin as substrate incubated for 60 mins by fluorimetry assay

[14] = Inhibition of recombinant bovine mitochondrial MAO-B using benzylamine or serotonin as substrate incubated for 60 mins by fluorimetry assay; parameters: species or system Bos taurus
[15] = target: Amyloid-beta precursor protein (Homo sapiens) (UniProt P05067); test: Inhibition of amyloid beta (1 to 42) (unknown origin) self aggregation at 10 uM incubated for 48 hrs by thioflavin-T fluorescence method relative to control
[16] = target: Cholinesterase (Homo sapiens, UniProt P06276)
Description: Inhibition of BuChE (unknown origin) using acetylthiocholine iodide as substrate incubated for 5 mins by Ellman's method

[17] = target: T1, Acetylcholinesterase; test: Inhibition of AChE (unknown origin) using acetylthiocholine iodide as substrate incubated for 5 mins by Ellman's method
[18] = test system: Staphylococcus aureus; test: Antibacterial activity against Staphylococcus aureus ATCC 29213 assessed as bacterial growth inhibition by CLSI based protocol; type: functional, organism-based
[19] = test system: Staphylococcus aureus; test: Antibacterial activity against methicillin-resistant Staphylococcus aureus ATCC 33591 assessed as bacterial growth inhibition by CLSI based protocol; type: functional, organism-based
[20] = target: T5, Peroxisome proliferator-activated receptor gamma (Homo sapiens, UniProt P37231); test: Displacement of isotopically-labeled PPAR-gamma (unknown origin) assessed as inhibition constant by competitive inhibition assay
T5 sequence (P37231 whole entry): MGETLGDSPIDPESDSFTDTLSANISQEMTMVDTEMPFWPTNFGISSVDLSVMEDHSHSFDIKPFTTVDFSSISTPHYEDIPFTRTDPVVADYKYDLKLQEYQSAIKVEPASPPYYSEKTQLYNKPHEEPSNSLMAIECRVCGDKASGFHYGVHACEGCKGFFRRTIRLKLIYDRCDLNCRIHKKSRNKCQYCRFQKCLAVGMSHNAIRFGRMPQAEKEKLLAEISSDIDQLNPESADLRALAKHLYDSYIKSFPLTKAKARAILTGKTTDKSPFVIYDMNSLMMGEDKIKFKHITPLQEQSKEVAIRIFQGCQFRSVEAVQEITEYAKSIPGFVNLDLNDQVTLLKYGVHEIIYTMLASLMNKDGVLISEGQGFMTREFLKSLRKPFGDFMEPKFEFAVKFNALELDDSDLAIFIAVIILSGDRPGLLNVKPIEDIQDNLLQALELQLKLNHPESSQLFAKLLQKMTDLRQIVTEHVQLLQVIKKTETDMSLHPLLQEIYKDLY

[21] = species on record: Rattus norvegicus; test: Selectivity index, ratio of Ki for A2AAR in rat striatal membrane to Ki for A1AR in rat whole brain membrane; type: cell membranes
[22] = test system: Mycobacterium tuberculosis; test: Antibacterial activity against Mycobacterium tuberculosis H37Rv assessed as bacterial growth inhibition; type: functional
[23] = species on record: Rattus norvegicus; test: Selectivity index, ratio of Ki for A2AAR in rat striata to Ki for A1AR in rat whole brain
[24] = test system: KB; test: Cytotoxicity aginst human KB cells assessed as cell growth inhibition; type: functional, cell-based; conditions: Homo sapiens, KB; read-out: IC50

Sequence of Cholinesterase (P06276 whole entry): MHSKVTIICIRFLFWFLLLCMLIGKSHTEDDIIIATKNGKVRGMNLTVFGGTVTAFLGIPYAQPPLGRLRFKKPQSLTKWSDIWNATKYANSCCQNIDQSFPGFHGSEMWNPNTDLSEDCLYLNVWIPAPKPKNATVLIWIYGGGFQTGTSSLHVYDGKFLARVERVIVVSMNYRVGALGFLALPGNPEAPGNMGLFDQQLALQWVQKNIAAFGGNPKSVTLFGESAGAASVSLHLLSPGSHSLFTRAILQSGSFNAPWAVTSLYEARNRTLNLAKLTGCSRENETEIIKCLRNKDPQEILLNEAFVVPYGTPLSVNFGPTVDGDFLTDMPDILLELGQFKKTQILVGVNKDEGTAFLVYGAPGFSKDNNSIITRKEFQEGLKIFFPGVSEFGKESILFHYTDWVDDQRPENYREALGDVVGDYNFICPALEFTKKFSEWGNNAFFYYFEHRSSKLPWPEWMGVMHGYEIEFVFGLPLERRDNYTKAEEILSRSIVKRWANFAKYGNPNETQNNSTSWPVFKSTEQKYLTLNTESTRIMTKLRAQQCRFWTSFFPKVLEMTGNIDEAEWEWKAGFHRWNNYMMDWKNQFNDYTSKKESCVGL
T1 sequence (P22303 whole entry): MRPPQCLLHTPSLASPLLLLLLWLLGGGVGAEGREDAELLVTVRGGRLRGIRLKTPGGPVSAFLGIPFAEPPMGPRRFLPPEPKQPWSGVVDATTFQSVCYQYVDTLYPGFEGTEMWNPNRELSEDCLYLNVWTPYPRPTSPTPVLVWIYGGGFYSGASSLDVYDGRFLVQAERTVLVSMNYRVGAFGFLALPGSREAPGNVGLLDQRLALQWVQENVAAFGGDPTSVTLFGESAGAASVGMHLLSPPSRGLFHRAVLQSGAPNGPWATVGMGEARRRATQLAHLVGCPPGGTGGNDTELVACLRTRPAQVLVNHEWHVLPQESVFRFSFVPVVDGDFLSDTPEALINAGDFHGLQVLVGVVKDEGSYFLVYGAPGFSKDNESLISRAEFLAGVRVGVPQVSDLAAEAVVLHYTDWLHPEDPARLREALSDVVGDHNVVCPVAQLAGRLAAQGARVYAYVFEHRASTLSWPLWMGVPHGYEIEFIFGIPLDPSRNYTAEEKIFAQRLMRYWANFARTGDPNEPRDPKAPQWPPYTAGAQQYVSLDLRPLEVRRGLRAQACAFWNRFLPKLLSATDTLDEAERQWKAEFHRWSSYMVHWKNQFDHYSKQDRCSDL
Sequence of Amyloid-beta precursor protein (Homo sapiens) (P05067 whole entry): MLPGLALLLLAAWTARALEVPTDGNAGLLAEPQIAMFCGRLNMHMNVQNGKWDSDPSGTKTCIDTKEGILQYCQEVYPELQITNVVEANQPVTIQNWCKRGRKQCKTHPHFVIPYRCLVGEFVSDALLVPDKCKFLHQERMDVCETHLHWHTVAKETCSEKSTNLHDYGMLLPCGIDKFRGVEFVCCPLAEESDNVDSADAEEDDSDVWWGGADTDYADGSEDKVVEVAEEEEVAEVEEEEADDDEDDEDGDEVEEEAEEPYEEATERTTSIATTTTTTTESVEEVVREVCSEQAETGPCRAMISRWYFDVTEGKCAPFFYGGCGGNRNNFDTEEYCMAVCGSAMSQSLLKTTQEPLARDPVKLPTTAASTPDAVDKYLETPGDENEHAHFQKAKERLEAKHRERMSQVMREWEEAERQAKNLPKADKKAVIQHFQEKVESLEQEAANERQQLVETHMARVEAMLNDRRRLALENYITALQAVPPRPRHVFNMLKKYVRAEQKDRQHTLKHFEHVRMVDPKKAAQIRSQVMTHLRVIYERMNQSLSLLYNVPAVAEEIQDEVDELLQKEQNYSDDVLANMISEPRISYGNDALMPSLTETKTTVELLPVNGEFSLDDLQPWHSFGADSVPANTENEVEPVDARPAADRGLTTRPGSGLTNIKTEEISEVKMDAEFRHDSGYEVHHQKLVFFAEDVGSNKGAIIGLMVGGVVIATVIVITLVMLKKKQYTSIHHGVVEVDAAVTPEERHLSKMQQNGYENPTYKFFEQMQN

O=C1CC(O)C(O)c2c(O)cccc21 (configuration not stated)
pIC50 [1]: 2.85

CC1SC(N2N=C3c4ccccc4CC[C@H]3[C@H]2c2ccc(Cl)cc2)=NC1=O (some centres not stated)
MIC [2]: 12.5 µg/mL (≈ 31.6 µM) | MIC [3]: 12.5 µg/mL (≈ 31.6 µM) | MIC [4]: 12.5 µg/mL (≈ 31.6 µM)

O=C1CC[C@H](O)c2ccccc21 [(-)-4-HYDROXY-ALPHA-TETRALONE]
MIC [5]: 250 µg/mL (≈ 1540 µM) | MIC [6]: 250 µg/mL (≈ 1540 µM) | MIC [7]: 250 µg/mL (≈ 1540 µM) | MIC [8]: 250 µg/mL (≈ 1540 µM)

N#Cc1ccc(COc2ccc3c(c2)C(=O)CCC3)cc1
Ratio IC50 [9]: 8 | pIC50 [10]: 6.44 | pIC50 [11]: 7.33

O=C1/C(=C/c2ccc(Cl)cc2Cl)CCc2ccccc21
pIC50 [12]: < 4.70

CCC1C/C(=C\c2cc(OC)c(OC)c(OC)c2Br)C(=O)c2ccccc21 (configuration not stated)
pIC50 [13]: 6.04 | pIC50 [14]: 6.06 | inhibition [15]: 80% | pIC50 [16]: 4.90 | pIC50 [17]: 7.35

O=C1CC[C@H](O)c2c(O)ccc(O)c21
IC50 [18]: 4960 µg/mL (≈ 25500 µM) | MIC [18]: 10000 µg/mL (≈ 51500 µM) | IC50 [19]: 3460 µg/mL (≈ 17800 µM) | MIC [19]: 5000 µg/mL (≈ 25700 µM)

Cc1ccc(COc2ccc3c(c2)C(=O)CCC3)cc1
Ratio IC50 [9]: 195

COc1ccc(/C=C2\CCc3ccccc3C2=O)cc1
pIC50 [12]: < 4.70

C=C(C)C1Cc2cc3c(cc2C1)C(=O)C[C@@H](c1ccc(O)c(O)c1)C3 (some centres not stated)
pKi [20]: 5.33

O=C1/C(=C/c2ccncc2)CCc2ccccc21
pIC50 [12]: > 5.00

COc1ccc(/C=C2\CCc3c(O)cccc3C2=O)cc1OC
Ratio Ki [21]: 1.03

COc1ccc2c(c1)CC[C@@H]1C2=NN(C2=NC(=O)C(C)S2)[C@@H]1c1ccccc1 (some centres not stated)
MIC [2]: 6.25 µg/mL (≈ 16 µM) | MIC [3]: 6.25 µg/mL (≈ 16 µM)

Cc1cc(O)c2c(c1)C(O)CCC2=O (configuration not stated)
MIC [22]: 100 µg/mL (≈ 520 µM)

COc1cc(/C=C2\CCc3cc([N+](=O)[O-])ccc3C2=O)c(Br)c(OC)c1OC
pIC50 [13]: 6.00 | pIC50 [14]: 6.04 | pIC50 [16]: 5.21 | pIC50 [17]: 6.24

COc1ccc([C@@H]2CC(=O)c3cc4c(cc3C2)OC(C)(C)C=C4)cc1O
pKi [20]: 4.75

O=C1/C(=C/c2cccc(O)c2)CCc2c(O)cccc21
Ratio Ki [23]: 3.4

O=C1/C(=C/c2ccc(O)cc2)CCc2c(O)cccc21
Ratio Ki [23]: 6

COc1ccc(/C=C2\CCc3cc([N+](=O)[O-])ccc3C2=O)c(Cl)c1OC
pIC50 [13]: 5.91 | pIC50 [14]: 5.54 | pIC50 [16]: 4.76 | pIC50 [17]: 5.53

CC1(C)C=Cc2cc3c(cc2O1)C[C@H](c1ccc(O)c(O)c1)CC3=O
pKi [20]: 5.24 | pIC50 [24]: 5.85

Reference: ChEMBL document CHEMBL5136978, “Research progress in pharmacological activities and structure-activity relationships of tetralone scaffolds as pharmacophore and fluorescent skeleton” (Eur J Med Chem, 2022)
